Test results from patent US10988459B2 (priority 2015, dated 2021).

Molecular target: human RIP1 kinase domain (2-375) (Homo sapiens (Human), UniProt Q13546)
Test: biochemical
Format: biochemical
Settings: Table 1; apparent Ki (Morrison tight-binding fit); 50 nM RIP1 kinase domain, 50 uM ATP, 2 hours incubation; read-out: RIP1 Ki
In short: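 Ki^app comes from Morrison tight-binding fits of fractional activity versus compound concentration. Activity was read as ADP production, via tracer displacement lowering fluorescence polarization (633 nm laser). Conditions: 2 h, 50 nM insect-cell-expressed enzyme, 50 uM ATP, 30 mM MgCl2, 1 mM DTT, 0.5% DMSO, pH 7.5 Hepes.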

Chain of human RIP1 kinase domain (2-375) (Q13546 2-375): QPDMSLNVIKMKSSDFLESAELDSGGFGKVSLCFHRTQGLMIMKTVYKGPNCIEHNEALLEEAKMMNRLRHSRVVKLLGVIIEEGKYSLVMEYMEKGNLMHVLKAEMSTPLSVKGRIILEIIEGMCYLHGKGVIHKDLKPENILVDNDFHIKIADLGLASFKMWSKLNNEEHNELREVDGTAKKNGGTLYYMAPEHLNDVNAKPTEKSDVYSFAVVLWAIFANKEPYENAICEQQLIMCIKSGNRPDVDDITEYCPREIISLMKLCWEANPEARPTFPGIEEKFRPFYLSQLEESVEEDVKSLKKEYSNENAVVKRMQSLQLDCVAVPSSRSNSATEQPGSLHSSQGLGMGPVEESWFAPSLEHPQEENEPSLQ

Row | SMILES | Ki
1 | O=C(N[C@H]1CCc2cc(Cl)ccc2NC1=O)c1n[nH]c2c1CCC2 [Example 49, (S)-N-(7-chloro-2-oxo-2,3,4,5-tetrahydro-1H-benzo[b]azepin-3-yl)-1,4,5,6-tetrahydrocyclopenta[c]pyrazole-3-carboxamide] | 7.6 µM
2 | CN1C(=O)[C@@H](NC(=O)c2n[nH]c3c2CCCC3)COc2ccccc21 [Example 32, (S)—N-(5-methyl-4-oxo-2,3,4,5-tetrahydrobenzo[b][1,4]oxazepin-3-yl)-4,5,6,7-tetrahydro-1H-indazole-3-carboxamide] | 3.4 µM
3 | CN1C(=O)[C@@H](NC(=O)c2nnc(Cc3ccccc3)[nH]2)CCn2nc(C3CC3)cc21 [Example 79, (S)-5-benzyl-N-(2-cyclopropyl-4-methyl-5-oxo-5,6,7,8-tetrahydro-4H-pyrazolo[1,5-a][1,3]diazepin-6-yl)-4H-1,2,4-triazole-3-carboxamide] | 0.034 µM

Same assay, conditions: Table 5; apparent Ki (Morrison tight-binding fit); 50 nM RIP1 kinase domain, 50 uM ATP, 2 hours incubation; read-out: Ki

Row | Ki | SMILES
4 | 0.149 µM | CN1C(=O)[C@@H](NC(=O)c2nc3n(n2)[C@@H](c2ccccc2)CCC3)COc2ccccc21 (single isomer, unassigned) [Example 790]
5 | 0.214 µM | CN1C(=O)C(NC(=O)c2ncn(Cc3ccccc3)n2)CCn2nc(CN3CCC(F)(F)C3)cc21 (single isomer, unassigned) [Example 719, 1-benzyl-N-[2-[(3,3-difluoropyrrplidin-1-yl)methyl]-4-methyl-5-oxo-7,8-dihydro-6H-pyrazolo[1,5-a][1,3]diazepin-6-yl]-1,2,4-triazole-3-carboxamide]

Same assay, conditions: human RIP1 kinase domain (2-375), 50 uM ATP, 2 hours incubation, Transcreener ADP assay; read-out: RIP1 Ki

Row | SMILES | Ki
6 | CN1C(=O)C(NC(=O)c2cc3c(cn2)cnn3[C@H]2CCOC2)COc2ccccc21 (stereo partly drawn) [Example 156, N-(5-methyl-4-oxo-2,3,4,5-tetrahydrobenzo[b][1,4]oxazepin-3-yl)-1-((S)-tetrahydrofuran-3-yl)-1H-pyrazolo[4,3-c]pyridine-6-carboxamide] | 0.0683 µM
7 | CCC1(C)OCc2nnc(C(=O)N[C@H]3COc4ccccc4N(C)C3=O)cc21 (stereo partly drawn) [Example 201, 5-ethyl-5-methyl-N—((S)-5-methyl-4-oxo-2,3,4,5-tetrahydrobenzo[b][1,4]oxazepin-3-yl)-5,7-dihydrofuro[3,4-c]pyridazine-3-carboxamide] | 0.411 µM
8 | CC1CCn2nnc(C(=O)N[C@H]3COc4ccccc4N(C)C3=O)c2C1 (stereo partly drawn) [Example 187, 5-methyl-N—((S)-5-methyl-4-oxo-2,3,4,5-tetrahydrobenzo[b][1,4]oxazepin-3-yl)-4,5,6,7-tetrahydro-[1,2,3]triazolo[1,5-a]pyridine-3-carboxamide] | 0.21 µM
9 | CC(C)n1ncc2cnc(C(=O)N[C@H]3COc4ccccc4N(C)C3=O)nc21 [Example 122, (S)-1-isopropyl-N-(5-methyl-4-oxo-2,3,4,5-tetrahydrobenzo[b][1,4]oxazepin-3-yl)-1H-pyrazolo[3,4-d]pyrimidine-6-carboxamide] | 0.0195 µM
10 | CN1C(=O)[C@@H](NC(=O)c2nc3n(n2)C(c2ccccc2)COC3)COc2ccccc21 (stereo partly drawn) [Example 123, N—((S)-5-methyl-4-oxo-2,3,4,5-tetrahydrobenzo[b][1,4]oxazepin-3-yl)-5-phenyl-5,6-dihydro-8H-[1,2,4]triazolo[5,1-c][1,4]oxazine-2-carboxamide] | 0.268 µM

The remaining lines, values ahead:

Row | Ki | SMILES
11 | 0.124 µM | CN1C(=O)C(NC(=O)c2nnc(Cc3ccccc3)[nH]2)CCn2c1nc1ccccc12 (stereo not shown) [Example 109, 5-benzyl-N-(1-methyl-2-oxo-2,3,4,5-tetrahydro-1H-benzo[4,5]imidazo[1,2-a][1,3]diazepin-3-yl)-4H-1,2,4-triazole-3-carboxamide]
12 | 0.0223 µM | Cc1cc2n(n1)CC[C@H](NC(=O)c1ncn(CC3CCCCC3)n1)C(=O)N2C [Example 163, (S)-1-(cyclohexylmethyl)-N-(2,4-dimethyl-5-oxo-5,6,7,8-tetrahydro-4H-pyrazolo[1,5-a][1,3]diazepin-6-yl)-1H-1,2,4-triazole-3-carboxamide]

Same assay, conditions: human RIP1 kinase domain (2-375), Transcreener ADP assay, 50 uM ATP, 2 hours incubation; read-out: RIP1 Ki

Row | Ki | SMILES
13 | 0.0623 µM | CN1C(=O)C(NC(=O)c2ncn(Cc3ccc(Cl)cc3)n2)CCn2nc(C3CC3)cc21 (stereo not shown) [Example 288, 1-(4-chlorobenzyl)-N-(2-cyclopropyl-4-methyl-5-oxo-5,6,7,8-tetrahydro-4H-pyrazolo[1,5-a][1,3]diazepin-6-yl)-1H-1,2,4-triazole-3-carboxamide]
14 | 0.811 µM | CN1C(=O)C(NC(=O)c2ncn(CC3CC(F)(F)C3)n2)CCn2nc(C3CC3)cc21 (stereo not shown) [Example 269, N-(2-cyclopropyl-4-methyl-5-oxo-5,6,7,8-tetrahydro-4H-pyrazolo[1,5-a][1,3]diazepin-6-yl)-1-((3,3-difluorocyclobutyl)methyl)-1H-1,2,4-triazole-3-carboxamide]

Same assay, conditions: tight-binding apparent inhibition constant; human RIP1 kinase domain (2-375) 50 nM, 50 uM ATP, 2 hours; read-out: Ki

Row | SMILES | Ki
15 | CCC(C)(O)c1ccnc(C(=O)N[C@H]2COc3ccccc3N(C)C2=O)n1 (stereo partly drawn) [Example 549, 4-(1-hydroxy-1-methyl-propyl)-N-[(3S)-5-methyl-4-oxo-2,3-dihydro-1,5-benzoxazepin-3-yl]pyrimidine-2-carboxamide] | 3.7 µM
16 | CN1C(=O)[C@@H](NC(=O)c2nc3n(n2)[C@@H](c2ccccc2F)CC3)COc2ccccc21 [Example 468, (R)-5-(2-fluorophenyl)-N—((S)-5-methyl-4-oxo-2,3,4,5-tetrahydrobenzo[b][1,4]oxazepin-3-yl)-6,7-dihydro-5H-pyrrolo[1,2-b][1,2,4]triazole-2-carboxamide] | 0.004 µM

More lines, now with the values ahead:

Row | Ki | SMILES
17 | 0.051 µM | CN1C(=O)C(NC(=O)c2ncn(Cc3ccccc3)n2)CCn2nc(CC3CC3)cc21 (stereo not shown) [Example 456, 1-Benzyl-N-(2-(cyclopropylmethyl)-4-methyl-5-oxo-5,6,7,8-tetrahydro-4H-pyrazol[1,5-a][1,3]diazepin-6-yl)-1H-1,2,4-triazole-3-carboxamide]
18 | 0.029 µM | Cc1cc2n(n1)CC[C@H](NC(=O)c1nnc(Cc3cccc(F)c3F)[nH]1)C(=O)N2C [Example 513, 5-[(2,3-difluorophenyl)methyl]-N-(6S)-2,4-dimethyl-5-oxo-7,8-dihydro-6H-pyrazolo[1,5-a][1,3]diazepin-6-yl-4H-1,2,4-triazole-3-carboxamide]
19 | 0.896 µM | CN1C(=O)[C@@H](NC(=O)c2nc3n(n2)[C@@H](c2ccccc2)CC3)CCn2nccc21 (single isomer, unassigned) [Example 362]
20 | 0.488 µM | CN1C(=O)C(NC(=O)c2ncn(Cc3ccccc3)n2)CCn2nc(C(C)(C)O)cc21 (racemic) [Example 372, 1-benzyl-N-[2-(1-hydroxy-1-methyl-ethyl)-4-methyl-5-oxo-7,8-dihydro-6H-pyrazolo[1,5-a][1,3]diazepin-6-yl]-1,2,4-triazole-3-carboxamide]
21 | 0.37 µM | Cc1cc2n(n1)CC[C@H](NC(=O)c1ncc3c(n1)C(C)(CC(F)(F)F)OC3)C(=O)N2C (stereo partly drawn) [Example 487, 7-methyl-N-[(6S)-2,4-dimethyl-5-oxo-7,8-dihydro-6H-pyrazolo[1,5-a][1,3]diazepin-6-yl]-7-(2,2,2-trifluoroethyl)-5H-furo[3,4-d]pyrimidine-2-carboxamide]
22 | 1.1 µM | Cc1cc2n(n1)CC[C@H](NC(=O)c1ncc3c(n1)[C@@](C)(CC(F)(F)F)OC3)C(=O)N2C (racemic) [Example 686, rac-(7R)-7-methyl-N-[rac-(6S)-2,4-dimethyl-5-oxo-7,8-dihydro-6H-pyrazolo[1,5-a][1,3]diazepin-6-yl]-7-(2,2,2-trifluoroethyl)-5H-furo[3,4-d]pyrimidine-2-carboxamide]
